Test results from PubChem BioAssay AID1963837 (Molecular Pharmacology Branch, DTP, NCI, 2024).

System: 843126-344-R-J1-PDC complex spheroid viability
Test: Anticancer human tumor 843126-344-R-J1-PDC patient-derived melanoma cell line growth inhibition [POLQ]
Details: for IC50: curve of first compound; for viability, T/C: stronger effect = lower value
Method in brief: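 PDC + HUVEC + MSC complex spheroids; POLQ inhibitors ± partner drugs; top conc. at/near clinical Cmax, else 10 microM (SN-38 1 microM), half-log dilutions; 37 degrees C, 5% CO2.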

[1] = second compound 0.0316 µM, first compound 0.0316 µM
[2] = second compound 0.0316 µM, first compound 0.1 µM
[3] = second compound 0.0316 µM, first compound 0.316 µM
[4] = second compound 0.0316 µM, first compound 1 µM
[5] = second compound 0.0316 µM, first compound 3.16 µM
[6] = second compound 0.0316 µM, first compound 10 µM
[7] = second compound 0.1 µM, first compound 0.0316 µM
[8] = second compound 0.1 µM, first compound 0.1 µM
[9] = second compound 0.1 µM, first compound 0.316 µM
[10] = second compound 0.1 µM, first compound 1 µM
[11] = second compound 0.1 µM, first compound 3.16 µM
[12] = second compound 0.1 µM, first compound 10 µM
[13] = second compound 0.316 µM, first compound 0.0316 µM
[14] = second compound 0.316 µM, first compound 0.1 µM
[15] = second compound 0.316 µM, first compound 0.316 µM
[16] = second compound 0.316 µM, first compound 1 µM
[17] = second compound 0.316 µM, first compound 3.16 µM
[18] = second compound 0.316 µM, first compound 10 µM
[19] = second compound 1 µM, first compound 0.0316 µM
[20] = second compound 1 µM, first compound 0.1 µM
[21] = second compound 1 µM, first compound 0.316 µM
[22] = second compound 1 µM, first compound 1 µM
[23] = second compound 1 µM, first compound 3.16 µM
[24] = second compound 1 µM, first compound 10 µM
[25] = second compound 3.16 µM, first compound 0.0316 µM
[26] = second compound 3.16 µM, first compound 0.1 µM
[27] = second compound 3.16 µM, first compound 0.316 µM
[28] = second compound 3.16 µM, first compound 1 µM
[29] = second compound 3.16 µM, first compound 3.16 µM
[30] = second compound 3.16 µM, first compound 10 µM
[31] = second compound 10 µM, first compound 0.0316 µM
[32] = second compound 10 µM, first compound 0.1 µM
[33] = second compound 10 µM, first compound 0.316 µM
[34] = second compound 10 µM, first compound 1 µM
[35] = second compound 10 µM, first compound 3.16 µM
[36] = second compound 10 µM, first compound 10 µM
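For viability, T/C in this document: spheroids exposed to drugs for seven days before readout.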

CCc1cc2c(N3CCc4c(cc(Cn5ccnc5)cc4-c4cn(C)nc4C(F)(F)F)C3=O)cc(C)nc2c(OC)n1 + Nc1ccc(C#CCN(C(=O)Cc2ncc(C(F)(F)F)cc2C(F)(F)F)c2ccc(F)cc2)nn1
IC50 (second compound 0.0316 µM): > 10000 nM | IC50 (second compound 0.1 µM): > 10000 nM | IC50 (second compound 0.316 µM): > 10000 nM | IC50 (second compound 1 µM): > 10000 nM | IC50 (second compound 3.16 µM): > 10000 nM | IC50 (second compound 10 µM): > 10000 nM | viability, T/C [1]: 96.9% | viability, T/C [2]: 95.3% | viability, T/C [3]: 82% | viability, T/C [4]: 80.7% | viability, T/C [5]: 73.2% | viability, T/C [6]: 58.8% | viability, T/C [7]: 97.5% | viability, T/C [8]: 99.5% | viability, T/C [9]: 89.1% | viability, T/C [10]: 82% | viability, T/C [11]: 79.7% | viability, T/C [12]: 58.2% | viability, T/C [13]: 87.5% | viability, T/C [14]: 97.4% | viability, T/C [15]: 77.6% | viability, T/C [16]: 84.6% | viability, T/C [17]: 76.8% | viability, T/C [18]: 66.7% | viability, T/C [19]: 104% | viability, T/C [20]: 94% | viability, T/C [21]: 80.3% | viability, T/C [22]: 81.7% | viability, T/C [23]: 68.6% | viability, T/C [24]: 58.8% | viability, T/C [25]: 90.6% | viability, T/C [26]: 85.9% | viability, T/C [27]: 93.4% | viability, T/C [28]: 74.8% | viability, T/C [29]: 66.2% | viability, T/C [30]: 64% | viability, T/C [31]: 83.3% | viability, T/C [32]: 89.6% | viability, T/C [33]: 75.8% | viability, T/C [34]: 81.5% | viability, T/C [35]: 73.3% | viability, T/C [36]: 59.4%

CC1COCCN1c1cc(C2(S(C)(=N)=O)CC2)nc(-c2ccnc3[nH]ccc23)n1 (stereo not drawn) + Nc1ccc(C#CCN(C(=O)Cc2ncc(C(F)(F)F)cc2C(F)(F)F)c2ccc(F)cc2)nn1
IC50 (second compound 0.0316 µM): > 10000 nM | IC50 (second compound 0.1 µM): > 10000 nM | IC50 (second compound 0.316 µM): 9880 nM | IC50 (second compound 1 µM): > 10000 nM | IC50 (second compound 3.16 µM): > 10000 nM | IC50 (second compound 10 µM): > 10000 nM | viability, T/C [1]: 101% | viability, T/C [2]: 84.8% | viability, T/C [3]: 86.6% | viability, T/C [4]: 76.9% | viability, T/C [5]: 72.7% | viability, T/C [6]: 51.6% | viability, T/C [7]: 84.8% | viability, T/C [8]: 90.2% | viability, T/C [9]: 88.8% | viability, T/C [10]: 103% | viability, T/C [11]: 76.1% | viability, T/C [12]: 55.8% | viability, T/C [13]: 88.4% | viability, T/C [14]: 92.1% | viability, T/C [15]: 82.3% | viability, T/C [16]: 77.5% | viability, T/C [17]: 70% | viability, T/C [18]: 49.2% | viability, T/C [19]: 96.2% | viability, T/C [20]: 92.8% | viability, T/C [21]: 86.3% | viability, T/C [22]: 90.5% | viability, T/C [23]: 76.3% | viability, T/C [24]: 51.8% | viability, T/C [25]: 89.9% | viability, T/C [26]: 84% | viability, T/C [27]: 89% | viability, T/C [28]: 86.1% | viability, T/C [29]: 69.8% | viability, T/C [30]: 53.8% | viability, T/C [31]: 94.6% | viability, T/C [32]: 84% | viability, T/C [33]: 81.5% | viability, T/C [34]: 75.1% | viability, T/C [35]: 65.2% | viability, T/C [36]: 51.8%

CCc1c2c(nc3ccc(O)cc13)-c1cc3c(c(=O)n1C2)COC(=O)[C@]3(O)CC + Nc1ccc(C#CCN(C(=O)Cc2ncc(C(F)(F)F)cc2C(F)(F)F)c2ccc(F)cc2)nn1
IC50 (second compound 0.0316 µM): > 1000 nM | IC50 (second compound 0.1 µM): > 1000 nM | IC50 (second compound 0.316 µM): > 1000 nM | IC50 (second compound 1 µM): > 1000 nM | IC50 (second compound 3.16 µM): > 1000 nM | IC50 (second compound 10 µM): > 1000 nM | viability, T/C (second compound 0.0316 µM, first compound 0.00316 µM): 68.2% | viability, T/C (second compound 0.0316 µM, first compound 0.01 µM): 60% | viability, T/C [1]: 63.9% | viability, T/C [2]: 64.7% | viability, T/C [3]: 58.8% | viability, T/C [4]: 49.1% | viability, T/C (second compound 0.1 µM, first compound 0.00316 µM): 64.3% | viability, T/C (second compound 0.1 µM, first compound 0.01 µM): 47.4% | viability, T/C [7]: 59% | viability, T/C [8]: 65.8% | viability, T/C [9]: 65% | viability, T/C [10]: 47.9% | viability, T/C (second compound 0.316 µM, first compound 0.00316 µM): 69.5% | viability, T/C (second compound 0.316 µM, first compound 0.01 µM): 56.3% | viability, T/C [13]: 61.3% | viability, T/C [14]: 57.2% | viability, T/C [15]: 63.3% | viability, T/C [16]: 48.5% | viability, T/C (second compound 1 µM, first compound 0.00316 µM): 75.3% | viability, T/C (second compound 1 µM, first compound 0.01 µM): 46.9% | viability, T/C [19]: 61.3% | viability, T/C [20]: 62.8% | viability, T/C [21]: 66.5% | viability, T/C [22]: 46.3% | viability, T/C (second compound 3.16 µM, first compound 0.00316 µM): 70.3% | viability, T/C (second compound 3.16 µM, first compound 0.01 µM): 64.5% | viability, T/C [25]: 52.7% | viability, T/C [26]: 72.5% | viability, T/C [27]: 63.3% | viability, T/C [28]: 52.2% | viability, T/C (second compound 10 µM, first compound 0.00316 µM): 67.7% | viability, T/C (second compound 10 µM, first compound 0.01 µM): 55.2% | viability, T/C [31]: 54.6% | viability, T/C [32]: 69.8% | viability, T/C [33]: 65.4% | viability, T/C [34]: 41%

CC1COCCN1c1cc(-c2ccnn2C)c2ccnc(-c3ccn[nH]3)c2n1 (stereo not drawn) + Nc1ccc(C#CCN(C(=O)Cc2ncc(C(F)(F)F)cc2C(F)(F)F)c2ccc(F)cc2)nn1
IC50 (second compound 0.0316 µM): 943 nM | IC50 (second compound 0.1 µM): 1110 nM | IC50 (second compound 0.316 µM): 911 nM | IC50 (second compound 1 µM): 738 nM | IC50 (second compound 3.16 µM): 661 nM | IC50 (second compound 10 µM): 510 nM | viability, T/C [1]: 89.6% | viability, T/C [2]: 76.3% | viability, T/C [3]: 65.3% | viability, T/C [4]: 48.7% | viability, T/C [5]: 36.7% | viability, T/C [6]: 29% | viability, T/C [7]: 84.3% | viability, T/C [8]: 71.2% | viability, T/C [9]: 63.5% | viability, T/C [10]: 48.3% | viability, T/C [11]: 43.5% | viability, T/C [12]: 28.6% | viability, T/C [13]: 85.3% | viability, T/C [14]: 77.2% | viability, T/C [15]: 63.9% | viability, T/C [16]: 46.6% | viability, T/C [17]: 40.6% | viability, T/C [18]: 30.2% | viability, T/C [19]: 84.6% | viability, T/C [20]: 65.8% | viability, T/C [21]: 55.9% | viability, T/C [22]: 49.8% | viability, T/C [23]: 41.3% | viability, T/C [24]: 32.8% | viability, T/C [25]: 75.9% | viability, T/C [26]: 70.8% | viability, T/C [27]: 59.6% | viability, T/C [28]: 44.5% | viability, T/C [29]: 34.5% | viability, T/C [30]: 29.9% | viability, T/C [31]: 73.4% | viability, T/C [32]: 66.4% | viability, T/C [33]: 52.8% | viability, T/C [34]: 43.9% | viability, T/C [35]: 36.9% | viability, T/C [36]: 29.1%
